Results from patent US9771372B2, “Compounds useful as S100-inhibitors” (Active Biotech AB, priority 2014, dated 2017).

The compounds below were run against T1, interaction between biotinylated human S100A9 and human RAGE-Fc (Homo sapiens, UniProt P06702) (assay: AlphaScreen inhibition assay, Biot-hS100A9:hRAGE-Fc (S100A9-RAGE inhibition assay)). Details: biot-hS100A9 and rhRAGE-Fc, Ca2+ and Zn2+ in buffer.
T1 construct: made in house; host or cells: E. coli BL21(DE3)/pET1120 (pLR757)
T1 sequence (P06702 1-114): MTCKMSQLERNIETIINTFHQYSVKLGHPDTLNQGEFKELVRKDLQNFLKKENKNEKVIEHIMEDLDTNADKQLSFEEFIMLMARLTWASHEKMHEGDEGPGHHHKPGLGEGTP
Type: binding
From the text: FIG. 1 is a schematic representation of an assay of the inhibition of the interaction between biotinylated human S100A9 and human RAGE-Fc using a small molecule S100A9 binder.
Inhibition Assay, Biot-hS100A9:hRAGE-Fc
The AlphaScreen (Amplified Luminescent Proximity Homogeneous Assay) contains two types of beads, Alpha Donor beads and Acceptor beads (PerkinElmer). Upon laser excitation at 680 nm a photosensitizer in the Donor bead converts ambient oxygen to a more excited singlet state. The singlet oxygen molecule diffuses (maximum 200 nm) to react with a thioxene derivative in the Acceptor bead and generates a chemiluminescence reaction. Fluorophores in the Acceptor bead subsequently emit light at 520-620 nm which can be detected in the EnVision® Multilabel plate Reader (PerkinElmer). The beads are light sensitive and all work with the beads is performed under subdued light conditions or using green filters on light sources (Roscolux Chroma Green #389, Rosco).
In the AlphaScreen Inhibition Assay described here, protein A (Staphylococcus aureus) conjugated Acceptor beads are used together with streptavidin coated Donor beads (Perkin Elmer 6760617M). The Acceptor beads are pre-incubated with Fc-tagged recombinant human RAGE (rhRAGE-Fc) allowing binding of the rhRAGE-Fc to protein A on the beads. Biotinylated human S100A9 (biot-hS100A9) is pre-incubated with the low molecular test compounds. The pre-mixes are then added to the wells of a micro-plate and incubated allowing interaction between biot-hS100A9 and rhRAGE-Fc. Subsequent addition of streptavidin coated Donor beads causes binding of the streptavidin to the biotinylated hS100A9. After an additional incubation the signal is measured.
Without inhibitory compounds, the interaction of biot-hS100A9 to rhRAGE-Fc will bring the Acceptor and Donor beads in close proximity thus generating a high signal. With an inhibitor present the complex will not form resulting in a decreased signal.
The AlphaScreen assay method is used for screening of the inhibitory effect of different compound samples at fixed concentrations or for IC50 determination by varying the compound concentrations. Samples of test compounds and references are prepared from solutions in DMSO. Relevant reference inhibitors and DMSO are used as controls for defined inhibition and non-inhibition, respectively in the assay. The percent inhibition in assay for test compounds and references are calculated by comparing their obtained assay signals with the signal values for the control with only DMSO (no compound).
Assay concentration of biotinylated hS100A9 and rhRAGE-Fc are batch dependent, and are determined and defined by separate cross-titration experiments using this AlphaScreen inhibition method to verify the optimal setup regarding signal strength and achievement of a defined inhibition with relevant reference compounds. The Final assay concentrations of Acceptor and Donor beads are 20 μg/mL.
Assay buffer is prepared by adding CaCl2 and ZnCl2 to HBS-P and is used freshly prepared in the experiment.
Biotin-hS100A9 solution for the experiment is prepared by dilution of appropriate amount of stock solution biot-hS100A9 in assay buffer (with CaCl2 and ZnCl2) and incubation in room temperature for 30 minutes.
rhRAGE-Fc solution for the experiment is prepared by dilution appropriate amount of rhRAGE-Fc stock in assay buffer.
Protein A Acceptor beads are diluted in assay buffer and are added to an equal volume of the prepared diluted rhRAGE-Fc solution. The beads are light sensitive. The vial is covered with aluminum foil and incubated at room temperature in the dark until biot-hS100A9+compound incubation is finished (see below).
Streptavidin-coated Donor beads are diluted in assay buffer. The beads are very light sensitive. The vial is covered with aluminum foil and incubated at room temperature in the dark until use (see below).
Samples of test compounds, appropriate references and DMSO control are diluted in assay buffer. […]

Going from `O=C(NC1(C(F)(F)F)C(=O)Nc2nc3cc(Cl)c(Cl)cc3n21)C1CCN(C(=O)C2CCCC2)C1` (racemic) [Example 50, (rac).1-cyclopentanecarbonyl-N-[10,11-dichloro-4-oxo-3-(trifluoromethyl)-2,5,7-triaza-tricyclo[6.4.0.0^2,6]dodeca-1(12),6,8,10-tetraen-3-yl]pyrrolidine-3-carboxamide] to `O=C(NC1(C(F)(F)F)C(=O)Nc2nc3cc(Cl)c(Cl)cc3n21)[C@@H]1CCN(S(=O)(=O)C2CCCC2)C1` (stereo partly drawn) [Example 51, (3R)-1-(cyclopentanesulfonyl)-N-[10,11-dichloro-4-oxo-3-(trifluoromethyl)-2,5,7-triaza-tricyclo[6.4.0.0^2,6]dodeca-1(12),6,8,10-tetraen-3-yl]pyrrolidine-3-carboxamide], the IC50 falls from 2.3 µM to 1.2 µM (1.9-fold).

First: O=C(CCC1CCCC1)NC1(C(F)(F)F)C(=O)Nc2nc3c(Cl)c(Cl)ccc3n21 (stereo not drawn) [Example 83, 3-cyclopentyl-N-[9,10-dichloro-4-oxo-3-(trifluoromethyl)-2,5,7-triazatricyclo[6.4.0.0^2,6]-dodeca-1(12),6,8,10-tetraen-3-yl]propanamide]
Second: O=C(CCC1CCCC1)NC1(C(F)(F)F)C(=O)Nc2nc3c(F)c(F)ccc3n21 (stereo not drawn) [Example 82, 3-cyclopentyl-N-[9,10-difluoro-4-oxo-3-(trifluoromethyl)-2,5,7-triazatricyclo[6.4.0.0^2,6]-dodeca-1(12),6,8,10-tetraen-3-yl]propanamide]
The IC50 of the first is 2.3-fold lower: 0.6 µM for the first, 1.4 µM for the second.

Compared with `COc1ccc(-c2cccc3c2nc2n3C(NC(=O)CCC3CCCC3)(C(F)(F)F)C(=O)N2)cc1` (single isomer, unassigned) [Example 230a, 3-cyclopentyl-N-[9-(4-methoxyphenyl)-4-oxo-3-(trifluoromethyl)-2,5,7-triazatricyclo[6.4.0.0^2,6]dodeca-1(12),6,8,10-tetraen-3-yl]propanamide], `CC(C)(C)c1ccc(-c2cccc3c2nc2n3C(NC(=O)CCC3CCCC3)(C(F)(F)F)C(=O)N2)cc1` (stereo not drawn) [Example 191, N-[9-(4-tert-butylphenyl)-4-oxo-3-(trifluoromethyl)-2,5,7-triazatricyclo[6.4.0.0^2,6]dodeca-1(12),6,8,10-tetraen-3-yl]-3-cyclopentylpropanamide] is 5.7-fold higher in IC50: 0.26 µM for the first, 1.49 µM for the second. The first is the more potent here.

First: COCCNc1nc(C(=O)NC2(C(F)(F)F)C(=O)Nc3nc4c(C#N)c(Cl)ccc4n32)cs1 (stereo not drawn) [Example 139, N-[10-chloro-9-cyano-4-oxo-3-(trifluoromethyl)-2,5,7-triazatricyclo[6.4.0.0^2,6]dodeca-1(8),6,9,11-tetraen-3-yl]-2-[(2-methoxyethyl)amino]-1,3-thiazole-4-carboxamide]
Second: O=C(NC1(C(F)(F)F)C(=O)Nc2nc3cc(Cl)c(Cl)cc3n21)c1cccc(NCCO)n1 (stereo not drawn) [Example 91, N-[10,11-dichloro-4-oxo-3-(trifluoromethyl)-2,5,7-triazatricyclo[6.4.0.0^2,6]dodeca-1(8),6,9,11-tetraen-3-yl]-6-[(2-hydroxyethyl)amino]pyridine-2-carboxamide]
The IC50 of the first is 4.9-fold higher: 1.27 µM for the first, 0.26 µM for the second. The second is the more potent here.

Going from `O=C(CCC1CCCC1)NC1(C(F)(F)F)C(=O)Nc2nc3c(-c4ccc([N+](=O)[O-])cc4)cccc3n21` (stereo not drawn) [Example 193, 3-cyclopentyl-N-[9-(4-nitrophenyl)-4-oxo-3-(trifluoromethyl)-2,5,7-triazatricyclo[6.4.0.0^2,6]dodeca-1(12),6,8,10-tetraen-3-yl]propanamide] to `COc1ccc(-c2cccc3c2nc2n3C(NC(=O)CCC3CCCC3)(C(F)(F)F)C(=O)N2)cc1` (stereo not drawn) [Example 186, 3-cyclopentyl-N-[9-(4-methoxyphenyl)-4-oxo-3-(trifluoromethyl)-2,5,7-triazatricyclo[6.4.0.0^2,6]dodeca-1(12),6,8,10-tetraen-3-yl]propanamide], the IC50 falls from 1.56 µM to 0.58 µM (2.7-fold).

`Cc1cc2nc3n(c2cc1C)C(NC(=O)c1ccc(OCC(F)(F)F)nc1)(C(F)(F)F)C(=O)N3` (stereo not drawn) [Example 21, N-[10,11-dimethyl-4-oxo-3-(trifluoromethyl)-2,5,7-triazatricyclo[6.4.0.0^2,6]dodeca-1(8),6,9,11-tetraen-3-yl]-6-(2,2,2-trifluoroethoxy)pyridine-3-carboxamide] and `Cc1cc2nc3n(c2cc1C)C(NC(=O)c1ccc(Cl)nc1)(C(F)(F)F)C(=O)N3` (stereo not drawn) [Example 28, 6-chloro-N-[10,11-dimethyl-4-oxo-3-(trifluoromethyl)-2,5,7-triazatricyclo[6.4.0.0^2,6]-dodeca-1(12),6,8,10-tetraen-3-yl]pyridine-3-carboxamide] are within 1.5-fold of each other in IC50: 4 µM for the first, 3.7 µM for the second.

`Cc1cc2nc3n(c2cc1C)C(NC(=O)c1cccc(NC2CCCCC2)n1)(C(F)(F)F)C(=O)N3` (stereo not drawn) [Example 35, 6-(cyclohexylamino)-N-[10,11-dimethyl-4-oxo-3-(trifluoromethyl)-2,5,7-triazatricyclo-[6.4.0.0^2,6]dodeca-1(12),6,8,10-tetraen-3-yl]pyridine-2-carboxamide] and `Cc1cc2nc3n(c2cc1C)C(NC(=O)c1cccc(C2CCCCC2)n1)(C(F)(F)F)C(=O)N3` (stereo not drawn) [Example 36, 6-cyclohexyl-N-[10,11-dimethyl-4-oxo-3-(trifluoromethyl)-2,5,7-triazatricyclo[6.4.0.0^2,6]-dodeca-1(12),6,8,10-tetraen-3-yl]pyridine-2-carboxamide] are within 1.5-fold of each other in IC50: 2.7 µM for the first, 3.7 µM for the second.

Compared with `COc1ccc(-c2cccc3c2nc2n3C(NC(=O)CCC3CCCC3)(C(F)(F)F)C(=O)N2)cc1` (single isomer, unassigned) [Example 230b, 3-cyclopentyl-N-[9-(4-methoxyphenyl)-4-oxo-3-(trifluoromethyl)-2,5,7-triazatricyclo[6.4.0.0^2,6]dodeca-1(12),6,8,10-tetraen-3-yl]propanamide], `O=C(CCC1CCCC1)NC1(C(F)(F)F)C(=O)Nc2nc3c(-c4nnn[nH]4)cccc3n21` (stereo not drawn) [Example 199, 3-cyclopentyl-N-[4-oxo-9-(1H-1,2,3,4-tetrazol-5-yl)-3-(trifluoromethyl)-2,5,7-triazatricyclo[6.4.0.0^2,6]dodeca-1(12),6,8,10-tetraen-3-yl]propanamide] is 3.1-fold lower in IC50: 2.88 µM for the first, 0.92 µM for the second. The second is the more potent here.

`CN(C)c1cccc(C(=O)NC2(C(F)(F)F)C(=O)Nc3nc4cc(Cl)c(Cl)cc4n32)n1` (stereo not drawn) [Example 65, N-[10,11-dichloro-4-oxo-3-(trifluoromethyl)-2,5,7-triazatricyclo[6.4.0.0^2,6]dodeca-1(12),6,8,10-tetraen-3-yl]-6-(dimethylamino)pyridine-2-carboxamide] and `O=C(NC1(C(F)(F)F)C(=O)Nc2nc3cc(Cl)c(Cl)cc3n21)C1CCNC1` (mixture of isomers) [Example 42, N-[10,11-dichloro-4-oxo-3-(trifluoromethyl)-2,5,7-triazatricyclo-[6.4.0.0^2,6]dodeca-1(12),6,8,10-tetraen-3-yl]pyrrolidine-3-carboxamide] are within 1.5-fold of each other in IC50: 2.2 µM for the first, 2 µM for the second.

Going from `O=C(CCC1CCCC1)NC1(C(F)(F)F)C(=O)Nc2nc3ccccc3n21` (stereo not drawn) [Example 9, 3-cyclopentyl-N-[4-oxo-3-(trifluoromethyl)-2,5,7-triazatricyclo[6.4.0.0^2,6]dodeca-1(8),6,9,11-tetraen-3-yl]propanamide] to `Cc1cc2nc3n(c2cc1C)C(NC(=O)[C@H](C)OCC1CCCC1)(C(F)(F)F)C(=O)N3` (single isomer, unassigned) [Example 215b], the IC50 falls from 10.2 µM to 2.66 µM (3.8-fold).

In the case of `Cc1cc2c(nc3n2C(NC(=O)c2ccccc2)(C(F)(F)F)C(=O)N3)c(Br)c1C` (stereo not drawn) [Example 77, N-[9-bromo-10,11-dimethyl-4-oxo-3-(trifluoromethyl)-2,5,7-triazatricyclo[6.4.0.0^2,6]dodeca-1(8),6,9,11-tetraen-3-yl]benzamide], the IC50 is reported as 4.3 µM.
